Measurements: patent US20050222229A1, “Fungicidal mixtures” (priority 2002, published 2005)

System: Plasmopara viticola
Test: Persistency against peronospora of grapevine caused by Plasmopara viticola (potted grapevines, inoculation 3 days after spraying)
Format: in vivo
Conditions: grapevine Müller-Thurgau, inoculated 3 days after treatment
Protocol: The active compounds, separately or together, were formulated as a stock solution comprising 0.25% by weight of active compound in acetone or DMSO. 1% by weight of the emulsifier Uniperol® EL (wetting agent having emulsifying and dispersing action based on ethoxylated alkylphenols) was added to the solution, and the mixture was diluted with water to the desired concentration.
Use example: Persistency against peronospora of grapevine caused by Plasmopara viticola.
Leaves of potted grapevines of the cultivar “Müller-Thurgau” were sprayed to run off point with an aqueous suspension having the concentration of active compound stated below. To be able to assess the persistency of the substances, the plants were, after the spray coating had dried on, placed in a greenhouse for 3 days. Only then were the leaves inoculated with an aqueous zoospore suspension of Plasmopara viticola. The grapevines were then initially placed in a water-vapor-saturated chamber at 24° C. for 48 hours and then in a greenhouse at temperatures between 20 and 30° C. for 5 days. After this period of time, the plants were, to promote sporangiophore eruption, again placed in a humid chamber for 16 hours. The extent of the development of the infection on the undersides of the leaves was then determined visually.
for evaluation, the visually determined values for the percentages of infected leaf area were converted into efficacies in. % of the untreated control.
The efficacy (E) is calculated as follows using Abbot's formula: E=(1−α/β)·100 • α corresponds to the fungal infection of the treated plants in % and • β corresponds to the fungal infection of the untreated (control) plants in %
An efficacy of 0 means that the infection level of the treated plants corresponds to that of the untreated control plants; an efficacy of 100 means that the treated plants were not infected.
The expected efficacies of the active compound mixtures are determined using Colby's formula [R. S. Colby, Weeds 15, 20-22 (1967)] and compared with the observed efficacies. Colby's formula: E=x+y−x·y/100 • E expected efficacy, expressed in % of the untreated control, when using the mixture of the active compounds A and B at the concentrations a and b • x efficacy, expressed in % of the untreated control, when using active compound A at a concentration of a
y efficacy, expressed in % of the untreated control, when using active compound B at a concentration of b

[1] = 0.375 ppm active compound in the spray liquor
[2] = 0.75 ppm active compound in the spray liquor
[3] = 1.5 ppm active compound in the spray liquor
[4] = 3 ppm active compound in the spray liquor
[5] = 6 ppm active compound in the spray liquor

With N#Cc1sc2c(=O)c3ccccc3c(=O)c=2sc1C#N [II, dithianon] the “Efficacy in % of the untreated control” value (3.75 ppm active compound in the spray liquor) was 0%, the “Efficacy in % of the untreated control” value (7.5 ppm active compound in the spray liquor) was 20% and the “Efficacy in % of the untreated control” value (15 ppm active compound in the spray liquor) was 32%.

With CSC1=N[C@@](C)(c2ccccc2)C(=O)N1Nc1ccccc1 [Ia, fenamidone] the “Efficacy in % of the untreated control” value [1] was 66%, the “Efficacy in % of the untreated control” value [2] was 77% and the “Efficacy in % of the untreated control” value [3] was 93%. For the same compound, the “Efficacy in % of the untreated control” value [4] was 89% and the “Efficacy in % of the untreated control” value [5] was 94%.

For CC1(c2ccc(Oc3ccccc3)cc2)OC(=O)N(Nc2ccccc2)C1=O (stereo not shown) [Ib, famoxadone], the “Efficacy in % of the untreated control” value [1] was 0%, the “Efficacy in % of the untreated control” value [2] was 77% and the “Efficacy in % of the untreated control” value [3] was 83%. For the same compound, the “Efficacy in % of the untreated control” value [4] was 89% and the “Efficacy in % of the untreated control” value [5] was 89%.
